The values below come from publication PMC9961069 (Metabolites, 2023).

For assay [1], the system named is T1, DHFR in MDA-MB-468 lysates.
T1 construct: reactions containing 55 μg MDA-MB-468 lysate; endogenous in cells; host or cells: MDA-MB-468
In words: Lysate cellular thermal shift assay (CETSA) for DHFR. Format: binding, Human. The following applies: 10 μM, MDA-MB-468 lysate, 45 °C for 3 min, DMSO at 37 °C = 100%. Here is the method:
Trypsinized MDA-MB-468 cells were harvested by centrifugation at 200× g for 5 min and washed with PBS supplemented with EDTA-free PIC (Roche) and flash frozen for storage at −80 °C. Cells were lysed by resuspension in 60 μL PBS/PIC per 1 × 10^6 cells. Cells were lysed by three freeze-thaw cycles, where cells were frozen in an ethanol/dry ice bath for 3 min, immediately followed by incubation in a 37 °C water bath for 3 min. The insoluble fraction was removed by centrifugation at 20,000× g for 20 min at 4 °C. The supernatant containing the soluble lysate was removed and saved for subsequent steps.
After incubation, each reaction was transferred to a 1.5 mL tube and centrifuged at 20,000× g for 20 min at 4 °C to remove the insoluble proteins. After centrifugation, 18 μL of supernatant was carefully removed from each reaction, without disturbing any pelleted aggregates, and added to 4.5 μL of 5× SDS-PAGE loading buffer. 11 μL of each reaction was loaded onto a gel in duplicate, and proteins were detected by Western blot (as described below). Resulting band densities were fit to the Boltzmann equation to determine the melting temperature (Tm):(3) y=Bottom+Top−Bottom/1+e^Tm−x/Slope
To rescue the thermal degradation of DHFR by inhibitors, samples containing 10 μM inhibitor, 55 μg lysate, and 1% DMSO in a total volume of 28 μL in DHFR buffer were prepared in PCR tubes and incubated at room temperature for 20 min. Two DMSO-only controls were also prepared. Reactions containing inhibitors were then incubated at 45 °C for 3 min. One DMSO-only control was also heated at 45 °C for 3 min, and the other control was heated at 37 °C for 3 min. The soluble protein fraction was separated from the insoluble proteins by centrifugation, and proteins were separated by SDS-PAGE, as described above, and analyzed via Western blot, as described below. Each experiment was repeated 3 times.
Proteins were electrophoretically separated on a 10% gel, and proteins were transferred to a methanol-activated PVDF membrane using the Trans-Blot Turbo transfer system (Bio-Rad) for 7 min at 1.3 A and 25 V in Trans-Blot Turbo transfer buffer (Bio-Rad). Membranes were blocked with 5% skim milk w/v in TBS-T (20 mM Tris, 150 mM NaCl, 0.05% Tween-20) for 1 h at room temperature. […] The horseradish peroxidase (HRP)-linked anti-mouse IgG secondary antibody (NA931, Cytiva; 1:3000) was added for 1 h at room temperature in 5% skim milk w/v in TBS-T. Signal was detected by adding Immobilon Forte Western HRP Substrate (Millipore), and chemiluminescence was captured on a Sapphire Biomolecular Imager (Azure Biosystems). Band densities were determined using ImageJ (Fiji). The band intensity of DHFR was normalized to the thermostable loading control SOD1 [22].

Assay [2] deals with STAT3 transcriptional activity in U3A STAT3 luciferase reporter cell line. Put plainly: STAT3 luciferase reporter assay. It counts as cell-based. To be noted: 0.02–20 μM, OSM 10 ng/mL. As to the method:
The STAT3-dependent luciferase reporter assay was performed as previously reported. One day prior to the assay, the U3A STAT3 luciferase reporter cell line was seeded in a 96-well plate at 8000 cells per well. Cells were then incubated with compounds at the indicated concentration, and each well was treated with either media control or stimulated with 10 ng/mL oncostatin M (OSM) and incubated for six hours at 37 °C. Luciferase activity was quantified using the Bright-Glo Luciferase Assay system (Promega) and a Luminoskan Ascent Luminometer (Labsystems). Collected luminescence readings were normalized to DMSO-treated controls. Stimulation with (+OSM) gave luminescence values around 2.5 times that of the unstimulated control (−OSM). Quadruplicates were averaged and plotted with error bars representing standard deviation. Each condition was performed in quadruplicate on two separate occasions (n = 2) with representative data shown. Statistical significance was determined using Ordinary one-way ANOVA with a Dunnett multiple comparison test.
(In a reporter assay the amount or activity of a reporter protein is the signal.)

The test system of assay [3] is MDA-MB-231 cells. In words: LC/MS-based metabolite profiling. Format: cell-based, Human. To be noted: 24 h. As to the method: For characterization by mass spectrometry, MDA-MB-231 cells were seeded at a density of 3 × 10^5 cells per well in 6-well plates. […] DMSO only and DMSO + folinic acid controls were also performed. Per condition, biological quadruplicates of approximately one million cells were harvested, washed briefly with 1 mL of 0.9% NaCl (prepared in LC/MS-grade water Fisher Scientific W6500), and extracted in 500 μL prechilled extraction buffer (80% LC/MS-grade methanol, 20% 125 mM ammonium acetate, 12.5 mM sodium ascorbate prepared in LC/MS-grade water and supplemented with aminopterin (catalog no.: 16.330; Schircks Laboratories) and isotopically labeled internal standards (17 amino acids and reduced glutathione [Cambridge Isotope Laboratories; MSK- A2-1.2 and CNLM-6245-10])) using a cell scraper. After centrifugation for 10 min, 4 °C, at maximum speed on a benchtop centrifuge (Eppendorf), the cleared supernatant was transferred to a new tube and dried using a nitrogen dryer (Reacti-Vap™ Evaporator, Thermo Fisher Scientific, TS-18826) while on ice. Once the drying process was completed, samples were reconstituted in 50 µL QReSS water (Cambridge Isotope Laboratories, MSK-QRESS-KIT) by brief sonication in a 4 °C water bath. Extracted metabolites were spun for 3 min, 4 °C, at maximum speed on a bench-top centrifuge, and cleared supernatant was transferred to LC/MS microvials (National Scientific, C5000-45B). Three microliters of each sample were pooled and serially diluted 3- and 10-fold to be used as quality controls throughout the run of each batch. Unlabeled QReSS metabolites (Cambridge Isotope Laboratories, MSK-QReSS-US-KIT) and unlabeled amino acid mix standard (Cambridge Isotope Laboratories, MSK-A2-US-1.2) were also included in the run to ensure high-quality metabolomics results.
One microliter (equivalent to 2 × 10^4 cells) of the reconstituted sample was injected into a ZIC-pHILIC 150 × 2.1 mm (5 µm particle size) column (EMD Millipore) operated on a Vanquish™ Flex UHPLC Systems (Thermo Fisher Scientific, San Jose, CA, USA). Chromatographic separation was achieved using the following conditions: buffer A was acetonitrile; buffer B was 20 mM ammonium carbonate, 0.1% ammonium hydroxide. Gradient conditions were: linear gradient from 20% to 80% B; 20–20.5 min: from 80% to 20% B; 20.5–28 min: hold at 20% B. The column oven and autosampler tray were held at 25 °C and 4 °C, respectively.
Mass spectrometry data acquisition was performed using a QExactive benchtop orbitrap mass spectrometer equipped with an Ion Max source and a HESI II probe (Thermo Fisher Scientific, San Jose, CA, USA) and was performed in positive and negative ionization mode in a range of m/z = 70–1000, with the resolution set at 70,000, the AGC target at 1 × 10^6, and the maximum injection time (Max IT) at 20 msec. For nucleotide tSIM scans, the resolution was set at 70,000, the AGC target was 1 × 10^5, and the max IT was 100 msec.
Manual curation and integration of chromatographic peaks were performed with TraceFinder 4.1 (Thermo Fisher Scientific, Waltham, MA, USA) using a 5 ppm mass tolerance and referencing an in-house library of chemical standards. Data from TraceFinder were further consolidated and normalized with an in-house R script: (https://github.com/FrozenGas/KanarekLabTraceFinderRScripts/blob/main/MS_data_script_v2.4_20221018.R (accessed on 22 November 2022)). Briefly, this script performs normalization and quality control steps: (1) extracts and combines the peak areas from TraceFinder output .csvs; (2) calculates and normalizes to an averaged factor from all mean-centered chromatographic peak areas of isotopically labeled amino acids internal standards within each sample; (3) filters out low-quality metabolites based on user inputted cut-offs calculated from pool reinjections and pool dilutions; (4) calculates and normalizes for biological material amounts based on the total integrated peak area values of high-confidence metabolites. […]

Take `CN(Cc1cnc2nc(N)nc(N)c2n1)c1ccc(C(=O)N[C@@H](CCC(=O)O)C(=O)O)cc1` [MTX, methotrexate]: the “Normalized Band Density (%) of soluble DHFR” value in assay [1] is given as “greater than 100%”; in assay [1] (listed as Methotrexate), 123.37 ± 73.5%. Besides, in assay [2], the “Inhibition of STAT3-dependent luciferase activity” value is “potent inhibition of luciferase activity”. In addition, the “Orotate levels with FA supplementation” value in assay [3] (10 μM + 300 μg/mL FA) is recorded as “returned orotate to vehicle control levels”. Besides, the “AICAR levels” value in assay [3] (10 μM, inhibitor alone) was “failed to increase AICAR levels in a statistically significant manner”. Further, the “Orotate levels” value in assay [3] (10 μM, inhibitor alone) was “decreased or statistically insignificant changes in orotate levels”. Also, the “UDP level” value in assay [3] (10 μM, inhibitor alone versus DMSO) was “not upon treatment with MTX and 127159 alone”.
